Results: patent US11851440B2, “Modulators of eukaryotic initiation factor 2B, compositions and methods” (Denali Therapeutics Inc., priority 2017, dated 2023)
Like-named read-outs stand apart in the source and are kept apart here.

Test system: ISR pathway (ATF4 translation)
Experiment: ATF4 Nano Luciferase reporter integrated stress response (ISR) assay in H4 ATF4-NLuc cells
Details: compound 30 minutes, then 50 um sodium arsenite for 6 hours, luminescence readout
[1] = Homo sapiens, read-out: Activity (IC50), H4 ATF4-NLuc (clone 17) cells
[2] = read-out: Activity (IC50), H4 ATF4-NLuc (clone 17) cells

| Structure (SMILES) | IC50 [1] [nM] | other results |
| --- | --- | --- |
| O=C(COc1ccc(Cl)c(F)c1)NC12CC(c3nnc(C4C[C@H]4COC(F)(F)F)o3)(C1)C2 (mixture of isomers) [Example 80, 2-(4-chloro-3-fluoro-phenoxy)-N-[3-[5-[2-trans-(trifluoromethoxymethyl)cyclopropyl]-1,3,4-oxadiazol-2-yl]-1-bicyclo[1.1.1]pentanyl]acetamide] | < 1000 | – |
| C[C@H]1C[C@@H]1c1nnc(C23CC(NC(=O)COc4ccc(Cl)c(F)c4)(C2)C3)o1 (relative stereo) [Example 9, 2-(4-chloro-3-fluoro-phenoxy)-N-[1-[5-[(trans)-2-methylcyclopropyl]-1,3,4-oxadiazol-2-yl]-3-bicyclo[1.1.1]pentanyl]acetamide] | < 1000 | – |
| N#C[C@H]1C[C@@H](n2cc(C34CC(NC(=O)COc5ccc(Cl)c(F)c5)(C3)C4)nn2)C1 (relative stereo) [Example 35, 2-(4-chloro-3-fluorophenoxy)-N-(3-(1-((cis)-3-cyanocyclobutyl)-1H-1,2,3-triazol-4-yl)bicyclo[1.1.1]pentan-1-yl)acetamide] | < 1000 | – |
| N#C[C@H]1C[C@@H](n2ncc(C34CC(NC(=O)COc5ccc(Cl)c(F)c5)(C3)C4)n2)C1 (relative stereo) [Example 36, 2-(4-chloro-3-fluorophenoxy)-N-(3-(2-((cis)-3-cyanocyclobutyl)-2H-1,2,3-triazol-4-yl)bicyclo[1.1.1]pentan-1-yl)acetamide] | < 1000 | – |
| O=C(COc1ccc(Cl)c(F)c1)NC12CC(c3cnn(C4CCC4)n3)(C1)C2 (single isomer, unassigned) [Example 19, 2-(4-Chloro-3-fluoro-phenoxy)-N-[1-(2-cyclobutyltriazol-4-yl)-3-bicyclo[1.1.1]pentanyl]acetamide] | < 1000 | – |
| O=C(COc1ccc(Cl)c(F)c1)NC12CC(c3cn(C4CCC4)nn3)(C1)C2 (single isomer, unassigned) [Example 20, 2-(4-chloro-3-fluoro-phenoxy)-N-[1-(1-cyclobutyltriazol-4-yl)-3-bicyclo[1.1.1]pentanyl]acetamide] | < 1000 | – |
| O=C(COc1ccc(Cl)c(F)c1)NC12CC(c3nnc(C4C[C@H]4COC(F)(F)F)o3)(C1)C2 (single isomer, unassigned) [Example 82, 2-(4-chloro-3-fluoro-phenoxy)-N-[3-[5-[2-trans-(trifluoromethoxymethyl)cyclopropyl]-1,3,4-oxadiazol-2-yl]-1-bicyclo[1.1.1]pentanyl]acetamide] | < 1000 | – |
| O=C(COc1ccc(Cl)c(F)c1)NC12CC(c3nnc([C@H]4C[C@@H]4C(F)F)o3)(C1)C2 (single isomer, unassigned) [Example 84, 2-(4-chloro-3-fluoro-phenoxy)-N-[3-[5-[2-trans-(difluoromethyl)cyclopropyl]-1,3,4-oxadiazol-2-yl]-1-bicyclo[1.1.1]pentanyl]acetamide] | < 1000 | – |
| O=C(COc1ccc(Cl)c(F)c1)NC12CC(c3nnc([C@H]4C[C@H]4C(F)F)o3)(C1)C2 (single isomer, unassigned) [Example 85, 2-(4-chloro-3-fluoro-phenoxy)-N-[3-[5-[2-cis-(difluoromethyl)cyclopropyl]-1,3,4-oxadiazol-2-yl]-1-bicyclo[1.1.1]pentanyl]acetamide] | 1000 to 10000 | – |
| O=C(COC1CC(OC(F)(F)F)C1)NC12CC(c3nnc(C4C[C@H]4COC(F)(F)F)o3)(C1)C2 (single isomer, unassigned) [Example 90, 2-[cis-3-(trifluoromethoxy)cyclobutoxy]-N-[3-[5-[cis-2-(trifluoromethoxymethyl)cyclopropyl]-1,3,4-oxadiazol-2-yl]-1-bicyclo[1.1.1]pentanyl]acetamide] | – | IC50 [2]: > 10000 nM |
| O=C(COC1CC(OC(F)(F)F)C1)NC12CC(c3nnc(C4C[C@H]4COC(F)(F)F)o3)(C1)C2 (single isomer, unassigned) [Example 91, 2-[3-cis-(trifluoromethoxy)cyclobutoxy]-N-[3-[5-[2-trans-(trifluoromethoxymethyl)cyclopropyl]-1,3,4-oxadiazol-2-yl]-1-bicyclo[1.1.1]pentanyl]acetamide] | – | IC50 [2]: < 1000 nM |
| O=C(NC12CC(c3nnc([C@H]4C[C@@H](OC(F)(F)F)C4)o3)(C1)C2)c1ccn([C@H]2C[C@@H](OC(F)(F)F)C2)n1 (single isomer, unassigned) [Example 108, 1-[cis-3-(trifluoromethoxy)cyclobutyl]-N-[3-[5-[cis-3-(trifluoromethoxy)cyclobutyl]-1,3,4-oxadiazol-2-yl]-1-bicyclo[1.1.1]pentanyl]pyrazole-3-carboxamide] | < 1000 | – |
| C[C@H]1C[C@@H]1c1nnc(C23CC(NC(=O)COc4ccc(Cl)c(F)c4)(C2)C3)o1 (single isomer, unassigned) [Example 112, 2-(4-chloro-3-fluoro-phenoxy)-N-[1-[5-[2-methylcyclopropyl]-1,3,4-oxadiazol-2-yl]-3-bicyclo[1.1.1]pentanyl]acetamide] | < 1000 | – |
| C[C@H]1C[C@@H]1c1nnc(C23CC(NC(=O)COc4ccc(Cl)c(F)c4)(C2)C3)o1 (single isomer, unassigned) [Example 113, 2-(4-chloro-3-fluoro-phenoxy)-N-[1-[5-[2-methylcyclopropyl]-1,3,4-oxadiazol-2-yl]-3-bicyclo[1.1.1]pentanyl]acetamide] | – | IC50 [2]: < 1000 nM |
| O=C(NC12CC(c3nnc([C@H]4C[C@@H](OC(F)(F)F)C4)o3)(C1)C2)C1CCc2cc(Cl)ccc2O1 (single isomer, unassigned) [Example 157, 6-chloro-N-(3-(5-(3-cis-(trifluoromethoxy)cyclobutyl)-1,3,4-oxadiazol-2-yl)bicyclo[1.1.1]pentan-1-yl)chroman-2-carboxamide] | < 1000 | IC50 (Homo sapiens, H4 ATF4-NLuc (clone 17) cells): 9.2 nM |
| O=C(NC12CC(c3nnc([C@H]4C[C@@H](OC(F)(F)F)C4)o3)(C1)C2)C1CCc2cc(Cl)ccc2O1 (single isomer, unassigned) [Example 158, 6-chloro-N-(3-(5-(3-cis-(trifluoromethoxy)cyclobutyl)-1,3,4-oxadiazol-2-yl)bicyclo[1.1.1]pentan-1-yl)chroman-2-carboxamide] | – | IC50 [2]: < 1000 nM |
| O=C(NC12CC(c3nnc([C@H]4C[C@@H](OC(F)(F)F)C4)o3)(C1)C2)C1CCc2cc(F)ccc2O1 (single isomer, unassigned) [Example 159] | < 1000 | – |
| O=C(NC12CC(c3nnc([C@H]4C[C@@H](OC(F)(F)F)C4)o3)(C1)C2)C1CCc2cc(F)ccc2O1 (single isomer, unassigned) [Example 160] | – | IC50 [2]: < 1000 nM |
| O=C(COc1ccc(Cl)c(F)c1)NC12CC(N3C[C@H](C4CC(OC(F)(F)F)C4)OC3=O)(C1)C2 (single isomer, unassigned) [Example 206] | < 1000 | – |
| O=C(COc1ccc(Cl)c(F)c1)NC12CC(N3C[C@@H](C4CC(OC(F)(F)F)C4)OC3=O)(C1)C2 (single isomer, unassigned) [Example 208] | < 1000 | – |
| O=C(COc1ccc(Cl)c(F)c1)NC12CC(N3C[C@@H](C4CC(OC(F)(F)F)C4)OC3=O)(C1)C2 (single isomer, unassigned) [Example 209] | – | IC50 [2]: < 1000 nM |
| N#CC1CC([C@H]2CN(C34CC(NC(=O)COc5ccc(Cl)c(F)c5)(C3)C4)C(=O)O2)C1 (single isomer, unassigned) [Example 218] | < 1000 | – |
| O=C(COc1ccc(Cl)cc1)NC12CC(c3nnc(C4CCOC4)o3)(C1)C2 (stereo not drawn) [Example 1, 2-(4-Chlorophenoxy)-N-[3-(5-tetrahydrofuran-3-yl-1,3,4-oxadiazol-2-yl)-1-bicyclo[1.1.1]pentanyl]acetamide] | 1000 to 10000 | – |
